Measurements as given in publication PMC2860736 (Pharmacological research : the official journal of the …, 2010).
Where two headings read alike, the source gives them in different places.

What was measured:
ovine COX-1 = biological target: T1, ovine COX-1 (Ovis aries, UniProt P05979); experiment: COX functional assay; format: biochemical; settings: for Inhibition of COX-1 (%) Mean ± std. dev. (N=3): compound 10 μM; for inhibition at 10 µM: read-out: Inhibition of COX-1 (%) Mean ± std. dev. (N=3)
T1 sequence (P05979 25-600): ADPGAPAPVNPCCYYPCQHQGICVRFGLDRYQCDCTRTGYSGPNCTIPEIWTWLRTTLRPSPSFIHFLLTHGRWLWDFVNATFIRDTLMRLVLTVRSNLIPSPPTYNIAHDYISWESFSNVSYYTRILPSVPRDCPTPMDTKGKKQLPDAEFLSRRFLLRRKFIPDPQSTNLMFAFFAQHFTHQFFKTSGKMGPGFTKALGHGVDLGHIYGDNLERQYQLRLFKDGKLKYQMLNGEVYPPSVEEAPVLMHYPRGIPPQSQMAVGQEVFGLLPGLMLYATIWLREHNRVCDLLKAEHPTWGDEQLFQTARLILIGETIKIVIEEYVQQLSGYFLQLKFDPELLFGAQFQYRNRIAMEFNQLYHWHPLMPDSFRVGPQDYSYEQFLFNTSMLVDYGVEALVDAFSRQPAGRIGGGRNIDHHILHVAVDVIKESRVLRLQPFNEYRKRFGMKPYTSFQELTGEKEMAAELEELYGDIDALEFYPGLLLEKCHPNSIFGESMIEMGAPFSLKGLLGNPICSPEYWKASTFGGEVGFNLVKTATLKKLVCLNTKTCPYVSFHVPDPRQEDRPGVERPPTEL

human COX-2 = biological target: T2, human COX-2 (Homo sapiens, UniProt P35354); experiment: COX functional assay; format: biochemical; settings: for Inhibition of COX-2 (%) Mean ± std. dev. (N=3): compound 10 μM; for selectivity for COX-2 (COX-1 IC50 / COX-2 IC50): human COX-2 over COX-1; for COX-2 selectivity (IC50 COX-1 / IC50 COX-2): ratio of IC50 values; for inhibition at 10 µM: read-out: Inhibition of COX-2 (%) Mean ± std. dev. (N=3)
T2 sequence (P35354 18-604): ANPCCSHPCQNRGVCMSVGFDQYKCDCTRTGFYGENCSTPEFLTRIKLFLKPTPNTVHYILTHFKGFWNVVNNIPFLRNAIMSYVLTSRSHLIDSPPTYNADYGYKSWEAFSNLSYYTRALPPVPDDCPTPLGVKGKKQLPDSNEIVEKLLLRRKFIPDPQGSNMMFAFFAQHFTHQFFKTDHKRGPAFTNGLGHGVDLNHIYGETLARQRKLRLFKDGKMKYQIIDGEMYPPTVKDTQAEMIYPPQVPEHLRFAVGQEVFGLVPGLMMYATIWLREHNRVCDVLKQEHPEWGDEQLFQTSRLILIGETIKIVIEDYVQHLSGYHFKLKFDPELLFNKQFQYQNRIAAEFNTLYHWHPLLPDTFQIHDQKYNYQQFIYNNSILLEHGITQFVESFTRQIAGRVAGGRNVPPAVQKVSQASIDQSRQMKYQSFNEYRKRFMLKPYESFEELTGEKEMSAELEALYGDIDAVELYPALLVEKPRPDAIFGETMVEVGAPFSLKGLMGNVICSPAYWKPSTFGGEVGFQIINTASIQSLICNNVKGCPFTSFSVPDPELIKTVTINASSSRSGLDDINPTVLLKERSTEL

ovine COX-2 = experiment: Pulsed ultrafiltration LC-MS screening for COX-2 ligands; format: binding; settings: for binding to COX-2 (result in words): pulsed ultrafiltration LC-MS; for peak enhancement compared to the control chromatograms: standards screened as mixtures, 0.7 μg/mL each, control denatured COX-2
COX-1 [1] = settings: read-out: IC50 COX-1; assay using human platelets; cited from earlier work
COX-1 [2] = settings: read-out: IC50 COX-1; cited from earlier work
COX-2 = settings: read-out: IC50 COX-2; cited from earlier work
[3] = read-out: IC50 COX-2, N=3, mean ± std. dev.
[4] = IC50 COX-1, N=3, mean ± std. dev.
[5] = IC50 COX-2, N=3, mean ± std. dev.
[6] = read-out: IC50 COX-1, N=3, mean ± std. dev.

For `CC(=O)O[C@@H]1CC[C@@]2(C)[C@@H](CC[C@]3(C)[C@@H]2CC=C2[C@@H]4CC(C)(C)CC[C@]4(C)CC[C@]23C)[C@@]1(C)C(=O)O` [Acetyl-α-boswellic acid], the “Inhibition of COX-1 (%) Mean ± std. dev. (N=3)” value (ovine COX-1) was 74 ± 3%, the “Inhibition of COX-2 (%) Mean ± std. dev. (N=3)” value (human COX-2) was 19 ± 5% and the IC50 (human COX-2; [3]) was over 100 µM. It also gave an IC50 (human COX-2; read-out: IC50 COX-2, N=3, mean ± std. dev., listed as acetyl-α-boswellic acid) of at least 73 µM.

In the case of `C[C@H]1COC2=C1C(=O)C(=O)c1c2ccc2c1CCCC2(C)C` [Cryptotanshinone], the “binding to COX-2 (result in words)” value (ovine COX-2) is reported as “determined to be COX-2 ligands”, the IC50 (ovine COX-1; [4]) is reported as over 100 µM and the inhibition at 10 µM (ovine COX-1) is reported as 0%. The IC50 (human COX-2; [5]) was 22 ± 10 µM, the “selectivity for COX-2 (COX-1 IC50 / COX-2 IC50)” value (human COX-2) was at least 5 fold and the “COX-2 selectivity (IC50 COX-1 / IC50 COX-2)” value (human COX-2) was “COX-2 specific”. For the same compound, the inhibition at 10 µM (human COX-2) was 31 ± 20%.

With `CC[C@H](CC[C@@H](C)[C@H]1CC[C@H]2[C@@H]3CC=C4C[C@@H](O)CC[C@]4(C)[C@H]3CC[C@]12C)C(C)C` [β-Sitosterol] the “inhibition of COX-1 in the functional assay (result in words)” value (ovine COX-1) was “did not inhibit” and the “inhibition of COX-2 in the functional assay (result in words)” value (human COX-2) was “did not inhibit”.

With `O=C(/C=C/c1ccc(O)cc1)c1ccc(O)cc1O` [Isoliquiritigenin] the “peak enhancement compared to the control chromatograms” value (ovine COX-2) was at least 40% and the inhibition at 10 µM (human COX-2) was 23 ± 3%.

With `CC(=O)O[C@@H]1CC[C@@]2(C)[C@@H](CC[C@]3(C)[C@@H]2C(=O)C=C2[C@@H]4[C@@H](C)[C@H](C)CC[C@]4(C)CC[C@]23C)[C@@]1(C)C(=O)O` [Acetyl-11-keto-β-boswellic acid] the “Inhibition of COX-1 (%) Mean ± std. dev. (N=3)” value (ovine COX-1) was 39 ± 5%, the “Inhibition of COX-2 (%) Mean ± std. dev. (N=3)” value (human COX-2) was 23 ± 15% and the IC50 (human COX-2; [3]) was 85 ± 20 µM. The IC50 (human COX-2; read-out: IC50 COX-2, N=3, mean ± std. dev., listed as acetyl-11-keto-β-boswellic acid) was at least 73 µM and the IC50 (COX-1 [1]) was 6 µM.

In the case of `CC(=O)O[C@@H]1CC[C@@]2(C)[C@@H](CC[C@]3(C)[C@@H]2CC=C2[C@@H]4[C@@H](C)[C@H](C)CC[C@]4(C)CC[C@]23C)[C@@]1(C)C(=O)O` [Acetyl-β-boswellic acid], the “Inhibition of COX-1 (%) Mean ± std. dev. (N=3)” value (ovine COX-1) is reported as 31 ± 10%, the “Inhibition of COX-2 (%) Mean ± std. dev. (N=3)” value (human COX-2) is reported as 25 ± 6% and the IC50 (human COX-2; [3]) is reported as 73 ± 20 µM. It also gave an IC50 (human COX-2; read-out: IC50 COX-2, N=3, mean ± std. dev., listed as acetyl-β-boswellic acid) of at least 73 µM.

For `CC1(C)CC[C@]2(C)CC[C@]3(C)C(=CC[C@@H]4[C@@]5(C)CC[C@@H](O)[C@](C)(C(=O)O)[C@@H]5CC[C@]43C)[C@@H]2C1` [α-Boswellic acid], the “inhibition of COX-1 in the functional assay (result in words)” value (ovine COX-1) was “did not inhibit” and the “inhibition of COX-2 in the functional assay (result in words)” value (human COX-2) was “did not inhibit”.

For `CC(C)=CCOc1c2ccoc2cc2oc(=O)ccc12` [Isoimperatorin], the “inhibition of COX-1 in the functional assay (result in words)” value (ovine COX-1) was “did not inhibit” and the “inhibition of COX-2 in the functional assay (result in words)” value (human COX-2) was “did not inhibit”.

With `CC(C)=CCC/C(C)=C/Cc1cc2ccc(=O)oc2cc1O` [Ostruthin] the “inhibition of COX-1 in the functional assay (result in words)” value (ovine COX-1) was “did not inhibit” and the “inhibition of COX-2 in the functional assay (result in words)” value (human COX-2) was “did not inhibit”.

In the case of `O=C1C[C@@H](c2ccc(O)cc2)Oc2cc(O)ccc21` [Liquiritigenin], the “binding to COX-2 (result in words)” value (ovine COX-2) is reported as “did not show sufficient binding to COX-2”.

With `CCC/C=C1\OC(=O)C2=C1CC[C@H]1[C@H]3C=C4C(=O)O/C(=C\CCC)[C@@]4(CC3)[C@@H]21` [Senkyunolide O] the “binding to COX-2 (result in words)” value (ovine COX-2) was “determined to be COX-2 ligands”, the “Inhibition of COX-1 (%) Mean ± std. dev. (N=3)” value (ovine COX-1) was 0 ± 5% and the IC50 (ovine COX-1; [6]) was 25 ± 10 µM. For the same compound, the “Inhibition of COX-2 (%) Mean ± std. dev. (N=3)” value (human COX-2) was 52 ± 20%, the “selectivity for COX-2 (COX-1 IC50 / COX-2 IC50)” value (human COX-2) was at least 5 fold and the “COX-2 selectivity (IC50 COX-1 / IC50 COX-2)” value (human COX-2) was 5.00. It also gave an IC50 (human COX-2; [3]) of 5 ± 5 µM.

In the case of `COc1ccc(-c2cc(=O)c3c(O)cc(O)cc3o2)cc1` [Linarigenin], the “inhibition of COX-1 in the functional assay (result in words)” value (ovine COX-1) is reported as “did not inhibit” and the “inhibition of COX-2 in the functional assay (result in words)” value (human COX-2) is reported as “did not inhibit”.

With `CC(C)=CC(O)C/C(C)=C/COc1c2ccoc2cc2oc(=O)ccc12` (centres unmarked) [Notopterol] the “inhibition of COX-1 in the functional assay (result in words)” value (ovine COX-1) was “did not inhibit” and the “inhibition of COX-2 in the functional assay (result in words)” value (human COX-2) was “did not inhibit”.

In the case of `COc1cc(/C=C/C(=O)OCCc2ccccc2)ccc1O` [Phenethyl trans-ferulate], the “peak enhancement compared to the control chromatograms” value (ovine COX-2) is reported as at least 40%, the “Inhibition of COX-1 (%) Mean ± std. dev. (N=3)” value (ovine COX-1) is reported as 44 ± 3% and the IC50 (ovine COX-1; [6]) is reported as 18 ± 5 µM. The “Inhibition of COX-2 (%) Mean ± std. dev. (N=3)” value (human COX-2) was 25 ± 10%, the “COX-2 selectivity (IC50 COX-1 / IC50 COX-2)” value (human COX-2) was 0.58 and the “COX-2 selectivity (IC50 COX-1 / IC50 COX-2)” value (human COX-2; listed as phenethyl-trans-ferulate) was “inhibited COX-1 and COX-2 equally”. It also gave an IC50 (human COX-2; [3]) of 31 ± 15 µM.

For `Oc1ccc(/C=C/c2cc(O)cc(O)c2)cc1` [Resveratrol, reference compound], the IC50 (ovine COX-1; [4]) is given as 0.86 ± 0.1 µM, the inhibition at 10 µM (ovine COX-1) is given as 86 ± 7% and the IC50 (COX-1 [2]) is given as 0.83 ± 0.44 µM. The IC50 (COX-2) was 0.99 ± 0.4 µM.

In the case of `C=C(C)[C@@H]1CC[C@]2(C(=O)O)CC[C@]3(C)[C@H](CC[C@@H]4[C@@]5(C)CC[C@H](O)C(C)(C)[C@@H]5CC[C@]43C)[C@@H]12` [Betulinic acid], the IC50 (ovine COX-1; [4]) is reported as 20 ± 3 µM, the inhibition at 10 µM (ovine COX-1) is reported as 32 ± 5% and the “inhibition of COX-2 in the functional assay (result in words)” value (human COX-2) is reported as “almost no inhibition of COX-2”. The IC50 (human COX-2; [5]) was over 100 µM, the “COX-2 selectivity (IC50 COX-1 / IC50 COX-2)” value (human COX-2) was “COX-1 specific” and the inhibition at 10 µM (human COX-2) was 33 ± 5%.

For `C=C(C)[C@@H]1CC[C@]2(C)[C@H](CC=C3[C@@H]4[C@@H](C)[C@H](C)CC[C@]4(C)CC[C@]32C)[C@@]1(C)CCC(=O)O` [Roburic acid], the “Inhibition of COX-1 (%) Mean ± std. dev. (N=3)” value (ovine COX-1) was 33 ± 8%, the IC50 (ovine COX-1; [6]) was 5 ± 2 µM and the “Inhibition of COX-2 (%) Mean ± std. dev. (N=3)” value (human COX-2) was 45 ± 5%. It also gave an IC50 (human COX-2; [3]) of 9 ± 3 µM.

In the case of `CC1(C)[C@@H](O)CC[C@]2(C)[C@H]3C(=O)C=C4[C@@H]5C[C@@](C)(C(=O)O)CC[C@]5(C)CC[C@@]4(C)[C@]3(C)CC[C@@H]12` [Glycyrrhetic acid], the “inhibition of COX-1 in the functional assay (result in words)” value (ovine COX-1) is reported as “did not inhibit” and the “inhibition of COX-2 in the functional assay (result in words)” value (human COX-2) is reported as “did not inhibit”.

Work on `C[C@H]1[C@H](C)CC[C@]2(C)CC[C@]3(C)C(=CC[C@@H]4[C@@]5(C)CC[C@@H](O)[C@](C)(C(=O)O)[C@@H]5CC[C@]43C)[C@H]12` [β-Boswellic acid] yielded an inhibition at 10 µM (ovine COX-1) of 42 ± 15%, an IC50 (human COX-2; [5]) of over 100 µM and an inhibition at 10 µM (human COX-2) of 17 ± 15%.
